Laboratory results as given in patent publication US9371336B2, “Compounds for treating spinal muscular atrophy” (PTC Therapeutics Inc., priority 2012, dated 2016).

Experiments:
[1] = test system: SMN2 minigene mRNA (SMN2-A minigene construct); assay: SMN2 minigene mRNA splicing RT-qPCR assay in cultured cells; type: cell-based, human; settings: Homo sapiens, HEK293-H; HEK293H cells stably transfected with SMN2-A minigene, 24 hours, 7-point concentration data; concentration giving 1.5-fold SMN2 full length mRNA relative to vehicle-treated cells; read-out: EC1.5x for production of full length SMN2 mRNA
Description: The reverse transcription-quantitative PCR-based (RT-qPCR) assay is used to quantify the level of the full length SMN2 minigene mRNA containing SMN2 exon 7 in a HEK293H cell line stably transfected with said minigene and treated with a test compound.
HEK293H cells stably transfected with the SMN2-A minigene construct described above (10,000 cells/well) are seeded in 200 μL of cell culture medium (DMEM plus 10% FBS, with 200 μg/mL hygromycin) in 96-well flat-bottom plates and the plate is immediately swirled to ensure proper dispersal of cells, forming an even monolayer of cells. Cells are allowed to attach for at least 4-6 hours. Test compounds are serially diluted 3.16-fold in 100% DMSO to generate a 7-point concentration curve. A solution of test compound (1 μL, 200× in DMSO) is added to each cell-containing well and the plate is incubated for 24 hours in a cell culture incubator (37° C., 5% CO2, 100% relative humidity). Two replicates are prepared for each test compound concentration. The cells are then lysed in Cells-To-Ct lysis buffer and the lysate is stored at −80° C.
Primer SMN Forward A (SEQ ID NO. 1) hybridizes to a nucleotide sequence in exon 7 (nucleotide 22 to nucleotide 40), primer SMN Reverse A (SEQ ID NO. 2) hybridizes to a nucleotide sequence in the coding sequence of Firefly luciferase, SMN Probe A (SEQ ID NO. 3) hybridizes to a nucleotide sequence in exon 7 (nucleotide 50 to nucleotide 54) and exon 8 (nucleotide 1 to nucleotide 21). The combination of these three oligonucleotides detects only SMN1 or SMN2 minigenes (RT-qPCR) and will not detect endogenous SMN1 or SMN2 genes.
The SMN forward and reverse primers are used at final concentrations of 0.4 μM. The SMN probe is used at a final concentration of 0.15 μM. The GAPDH primers are used at final concentrations of 0.2 μM and the probe at 0.15 μM.
The SMN2-minigene GAPDH mix (15 μL total volume) is prepared by combining 7.5 μL of 2×RT-PCR buffer, 0.4 μL of 25×RT-PCR enzyme mix, 0.75 μL of 20×GAPDH primer-probe mix, 4.0075 μL of water, 2 μL of 10-fold diluted cell lysate, 0.06 μL of 100 μM SMN forward primer, 0.06 μL of 100 μM SMN reverse primer, and 0.225 μL of 100 μM SMN probe.
PCR is carried out at the following temperatures for the indicated time: Step 1: 48° C. (15 min); Step 2: 95° C. (10 min); Step 3: 95° C. (15 sec); Step 4: 60° C. (1 min); then repeat Steps 3 and 4 for a total of 40 cycles.
Each reaction mixture contains both SMN2-A minigene and GAPDH primers/probe sets (multiplex design), allowing simultaneous measurement of the levels of two transcripts.
Two SMN spliced products are generated from the SMN2 minigene. The first spliced product containing exon 7, corresponding to SMN2 full length mRNA, is referred to herein using the term “SMN2 minigene FL.” The second spliced product lacking exon 7 is referred to herein using the term “SMN2 minigene Δ7.”
The increase of SMN2 minigene FL mRNA relative to that in cells treated with vehicle control is determined from real-time PCR data using a modified ΔΔCt method (as described in Livak and Schmittgen, Methods, 2001, 25:402-8). The amplification efficiency (E) is calculated from the slope of the amplification curve for SMN2 minigene FL and GAPDH individually. The abundances of SMN2 minigene FL and GAPDH are then calculated as (1+E)^−Ct, where Ct is the threshold value for each amplicon. The abundance of SMN2 minigene FL is normalized to GAPDH abundance. The normalized SMN2 minigene FL abundance from test compound-treated samples is then divided by normalized SMN2 minigene FL abundance from vehicle-treated cells to determine the level of SMN2 FL mRNA relative to vehicle control.

Smn protein = Smn protein assay (HTRF) in cultured cells (SMA patient fibroblasts GM03813); type: cell-based, human; settings: 48 hours; for EC1.5x for Smn protein expression: SMA patient fibroblast cells (GM03813), HTRF, 7-point concentration data, concentration producing 1.5 times Smn protein vs DMSO vehicle control; for maximum fold (Fold) increase of Smn protein: SMA patient fibroblast cells, 7-point concentration curve, relative to vehicle control
Description: The Smn HTRF (homogeneous time resolved fluorescence) assay is used to quantify the level of Smn protein in SMA patient fibroblast cells treated with test compounds.
Cells are thawed and cultured in DMEM-10% FBS for 72 hours. Cells are trypsinized, counted and re-suspended to a concentration of 25,000 cells/mL in DMEM-10% FBS. The cell suspension is plated at 5,000 cells per well in a 96 well microtiter plate and incubated for 3 to 5 hours. […] Test compounds are serially diluted 3.16-fold in 100% DMSO to generate a 7-point concentration curve. 1 μL of test compound solution is transferred to cell-containing wells and cells are incubated for 48 hours in a cell culture incubator (37° C., 5% CO2, 100% relative humidity). Triplicate samples are set up for each test compound concentration. After 48 hours, the supernatant is removed from the wells and 25 μL of the RIPA lysis buffer, containing protease inhibitors, is added to the wells and incubated with shaking at room temperature for 1 hour. 25 μL of the diluent is added and then 35 μL of the resulting lysate is transferred to a 384-well plate, where each well contains 5 μL of the antibody solution (1:100 dilution of anti-SMN d2 and anti-SMN kryptate in SMN reconstitution buffer). The plate is centrifuged for 1 minute to bring the solution to the bottom of the wells, then incubated overnight at room temperature. Fluorescence for each well of the plate at 665 nm and 620 nm is measured on an EnVision multilabel plate reader (Perkin-Elmer).
The normalized fluorescence signal is calculated for each sample, Blank and vehicle control well by dividing the signal at 665 nm by the signal at 620 nm. Normalizing the signal accounts for possible fluorescence quenching due to the matrix effect of the lysate. The ΔF value (a measurement of Smn protein abundance as a percent value) for each sample well is calculated by subtracting the normalized average fluorescence for the Blank control wells from the normalized fluorescence for each sample well, then dividing this difference by the normalized average fluorescence for the Blank control wells and multiplying the resulting value by 100. The ΔF value for each sample well represents the Smn protein abundance from test compound-treated samples. The ΔF value for each sample well is divided by the ΔF value for the vehicle control wells to calculate the fold increase in Smn protein abundance relative to the vehicle control.

## Cl.O=c1oc2nc(N3CCNCC3)ccc2cc1-c1nc2c(Cl)cccc2s1 [Cpd 2, 3-(4-chloro-1,3-benzothiazol-2-yl)-7-(piperazin-1-yl)-2H-pyrano[2,3-b]pyridin-2-one hydrochloride]
[1]
  EC (1.5-fold): ≤ 0.1 µM
Smn protein
  EC1.5x for Smn protein expression: **** (an EC1.5×≦0.3 μM is indicated by four stars (****))
  maximum fold (Fold) increase of Smn protein: ***** (a fold increase >1.65 is indicated by five stars (*****))

## O=c1oc2nc(N3CCN(CCCl)CC3)ccc2cc1-c1nc2ccccc2s1 [Cpd 4, 3-(1,3-benzothiazol-2-yl)-7-[4-(2-chloroethyl)piperazin-1-yl]-2H-pyrano[2,3-b]pyridin-2-one]
[1]
  EC (1.5-fold): 1 to 3 µM
Smn protein
  maximum fold (Fold) increase of Smn protein: ** (a fold increase between >1.2 and ≦1.35 is indicated by two stars (**))

## CC(C)(C)OC(=O)N1CCN(c2cc3oc(=O)c(-c4nc5ccccc5s4)cc3cn2)CC1 [Cpd 7, tert-butyl 4-[3-(1,3-benzothiazol-2-yl)-2-oxo-2H-pyrano[3,2-c]pyridin-7-yl]piperazine-1-carboxylate]
[1]
  EC (1.5-fold): 3 to 30 µM
Smn protein
  maximum fold (Fold) increase of Smn protein: * (A maximum fold increase ≦1.2 is indicated by one star (*))

## CC(C)(C)OC(=O)N1CCN(c2cc3oc(=O)c(-c4nc5c(Cl)cccc5s4)cc3cn2)CC1 [Cpd 8, tert-butyl 4-[3-(4-chloro-1,3-benzothiazol-2-yl)-2-oxo-2H-pyrano[3,2-c]pyridin-7-yl]piperazine-1-carboxylate]
[1]
  EC (1.5-fold): 3 to 30 µM
Smn protein
  EC1.5x for Smn protein expression: * (An EC1.5× for Smn protein expression between >3 μM and ≦10 μM is indicated by one star (*))
  maximum fold (Fold) increase of Smn protein: ***** (a fold increase >1.65 is indicated by five stars (*****))

## CN1CCN(c2cc3oc(=O)c(-c4nc5ccccc5s4)cc3cn2)CC1 [Cpd 14, 3-(1,3-benzothiazol-2-yl)-7-(4-methylpiperazin-1-yl)-2H-pyrano[3,2-c]pyridin-2-one]
[1]
  EC (1.5-fold): 3 to 30 µM
Smn protein
  maximum fold (Fold) increase of Smn protein: * (A maximum fold increase ≦1.2 is indicated by one star (*))

## Cl.O=c1oc2nc(N3CCNCC3)ccc2cc1-c1cn2ccccc2n1 [Cpd 28, 3-(imidazo[1,2-a]pyridin-2-yl)-7-(piperazin-1-yl)-2H-pyrano[2,3-b]pyridin-2-one hydrochloride]
[1]
  EC (1.5-fold): 0.1 to 0.3 µM
Smn protein
  maximum fold (Fold) increase of Smn protein: *** (a fold increase between >1.35 and ≦1.5 is indicated by three stars (***))

## Cc1ccc2nc(-c3cc4cnc(N5CCNCC5)cc4oc3=O)cn2c1 [Cpd 33, 3-(6-methylimidazo[1,2-a]pyridin-2-yl)-7-(piperazin-1-yl)-2H-pyrano[3,2-c]pyridin-2-one]
[1]
  EC (1.5-fold): 1 to 3 µM
Smn protein
  EC1.5x for Smn protein expression: * (An EC1.5× for Smn protein expression between >3 μM and ≦10 μM is indicated by one star (*))
  maximum fold (Fold) increase of Smn protein: *** (a fold increase between >1.35 and ≦1.5 is indicated by three stars (***))

## Cc1cc(Cl)c2nc(-c3cc4cnc(N5CCNCC5)cc4oc3=O)cn2c1.Cl [Cpd 35, 3-(8-chloro-6-methylimidazo[1,2-a]pyridin-2-yl)-7-(piperazin-1-yl)-2H-pyrano[3,2-c]pyridin-2-one hydrochloride]
[1]
  EC (1.5-fold): 3 to 30 µM
Smn protein
  maximum fold (Fold) increase of Smn protein: ** (a fold increase between >1.2 and ≦1.35 is indicated by two stars (**))

## Cc1ccn2cc(-c3cc4cnc(N5CCNCC5)cc4oc3=O)nc2c1.Cl [Cpd 40, 3-(7-methylimidazo[1,2-a]pyridin-2-yl)-7-(piperazin-1-yl)-2H-pyrano[3,2-c]pyridin-2-one hydrochloride]
[1]
  EC (1.5-fold): 0.3 to 1 µM
Smn protein
  maximum fold (Fold) increase of Smn protein: ** (a fold increase between >1.2 and ≦1.35 is indicated by two stars (**))

## Cc1cn2cc(-c3cc4cnc(N5CCNCC5)cc4oc3=O)nc2s1.Cl [Cpd 41, 3-(2-methylimidazo[2,1-b][1,3]thiazol-6-yl)-7-(piperazin-1-yl)-2H-pyrano[3,2-c]pyridin-2-one hydrochloride]
[1]
  EC (1.5-fold): 0.3 to 1 µM
Smn protein
  maximum fold (Fold) increase of Smn protein: ** (a fold increase between >1.2 and ≦1.35 is indicated by two stars (**))

## Cc1ccn2nc(-c3cc4ccc(N5CCNCC5)nc4oc3=O)cc2c1.Cl [Cpd 43, 3-(5-methylpyrazolo[1,5-a]pyridin-2-yl)-7-(piperazin-1-yl)-2H-pyrano[2,3-b]pyridin-2-one hydrochloride]
[1]
  EC (1.5-fold): 0.1 to 0.3 µM
Smn protein
  EC1.5x for Smn protein expression: **** (an EC1.5×≦0.3 μM is indicated by four stars (****))
  maximum fold (Fold) increase of Smn protein: **** (a fold increase between >1.5 and ≦1.65 is indicated by four stars (****))

## Cl.O=c1oc2nc(N3CCNCC3)ccc2cc1-c1cn2ccsc2n1 [Cpd 44, 3-(imidazo[2,1-b][1,3]thiazol-6-yl)-7-(piperazin-1-yl)-2H-pyrano[2,3-b]pyridin-2-one hydrochloride]
[1]
  EC (1.5-fold): ≤ 0.1 µM
Smn protein
  EC1.5x for Smn protein expression: ** (an EC1.5× between >1 and ≦3 μM is indicated by two stars (**))
  maximum fold (Fold) increase of Smn protein: *** (a fold increase between >1.35 and ≦1.5 is indicated by three stars (***))

## Cc1ccn2cc(-c3cc4cnc(N5CCN(C)CC5)cc4oc3=O)nc2c1 [Cpd 57, 3-(7-methylimidazo[1,2-a]pyridin-2-yl)-7-(4-methylpiperazin-1-yl)-2H-pyrano[3,2-c]pyridin-2-one]
[1]
  EC (1.5-fold): 0.3 to 1 µM
Smn protein
  maximum fold (Fold) increase of Smn protein: ** (a fold increase between >1.2 and ≦1.35 is indicated by two stars (**))

## Cc1ccn2cc(-c3cc4ccc(N5CCN[C@@H](C)C5)nc4oc3=O)nc2c1 [Cpd 58, 3-(7-methylimidazo[1,2-a]pyridin-2-yl)-7-[(3S)-3-methylpiperazin-1-yl]-2H-pyrano[2,3-b]pyridin-2-one]
[1]
  EC (1.5-fold): ≤ 0.1 µM
Smn protein
  EC1.5x for Smn protein expression: **** (an EC1.5×≦0.3 μM is indicated by four stars (****))
  maximum fold (Fold) increase of Smn protein: **** (a fold increase between >1.5 and ≦1.65 is indicated by four stars (****))
